In series [1] the target is T1, Estrogen receptor (Homo sapiens, UniProt P03372).
T1 sequence (P03372 whole entry): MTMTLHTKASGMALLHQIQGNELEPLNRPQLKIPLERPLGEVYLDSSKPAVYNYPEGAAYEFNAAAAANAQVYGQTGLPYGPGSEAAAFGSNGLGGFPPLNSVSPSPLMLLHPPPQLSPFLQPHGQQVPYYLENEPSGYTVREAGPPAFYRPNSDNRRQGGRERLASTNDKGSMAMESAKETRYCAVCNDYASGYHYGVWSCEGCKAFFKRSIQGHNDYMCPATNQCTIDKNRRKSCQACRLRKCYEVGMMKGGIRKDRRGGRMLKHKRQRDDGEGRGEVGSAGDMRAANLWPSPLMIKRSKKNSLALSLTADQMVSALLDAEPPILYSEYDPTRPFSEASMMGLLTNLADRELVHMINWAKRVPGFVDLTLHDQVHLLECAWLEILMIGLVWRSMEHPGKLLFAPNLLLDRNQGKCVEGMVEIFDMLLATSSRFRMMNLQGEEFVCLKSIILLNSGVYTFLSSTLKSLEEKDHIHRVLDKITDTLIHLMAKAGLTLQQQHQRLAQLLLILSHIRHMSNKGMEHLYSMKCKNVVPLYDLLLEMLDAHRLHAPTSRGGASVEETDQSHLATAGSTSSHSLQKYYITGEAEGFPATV
Description: Binding affinity to human recombinant ERalpha by scintillation proximity assay

Series [2] deals with T2, Estrogen receptor beta (Homo sapiens, UniProt Q92731).
Description: Binding affinity to human recombinant ERbeta by scintillation proximity assay
In series [3] the target is T1, Estrogen receptor. The source holds these as a separate data set.
Description: Agonist activity at human recombinant ERalpha expressed in HEK293 cells by alkaline phosphatase reporter gene transactivation assay
Series [4] concerns the target T2, Estrogen receptor beta. The source holds these as a separate data set.
Description: Agonist activity at human recombinant ERbeta expressed in HEK293 cells by alkaline phosphatase reporter gene transactivation assay
A short description of series [5]: Plasma clearance in Sprague-Dawley rat at 1 mg/kg, iv and 2 mg/kg, po. Format: ADME, organism-based.
Series [6] can be described thus: Half life in Sprague-Dawley rat at 1 mg/kg, iv and 2 mg/kg, po. Format: ADME, organism-based. Particulars: in vivo.
The nature of series [7]: Bioavailability in Sprague-Dawley rat at 1 mg/kg, iv and 2 mg/kg, po. Particulars: in vivo. Format: ADME, organism-based.
Series [8] is described as follows: AUC in Sprague-Dawley rat at 1 mg/kg, iv. Format: ADME, organism-based. Also noted: dose 1 mg/kg, route intravenous. The conditions noted are these: plasma.

T2 sequence (Q92731 whole entry): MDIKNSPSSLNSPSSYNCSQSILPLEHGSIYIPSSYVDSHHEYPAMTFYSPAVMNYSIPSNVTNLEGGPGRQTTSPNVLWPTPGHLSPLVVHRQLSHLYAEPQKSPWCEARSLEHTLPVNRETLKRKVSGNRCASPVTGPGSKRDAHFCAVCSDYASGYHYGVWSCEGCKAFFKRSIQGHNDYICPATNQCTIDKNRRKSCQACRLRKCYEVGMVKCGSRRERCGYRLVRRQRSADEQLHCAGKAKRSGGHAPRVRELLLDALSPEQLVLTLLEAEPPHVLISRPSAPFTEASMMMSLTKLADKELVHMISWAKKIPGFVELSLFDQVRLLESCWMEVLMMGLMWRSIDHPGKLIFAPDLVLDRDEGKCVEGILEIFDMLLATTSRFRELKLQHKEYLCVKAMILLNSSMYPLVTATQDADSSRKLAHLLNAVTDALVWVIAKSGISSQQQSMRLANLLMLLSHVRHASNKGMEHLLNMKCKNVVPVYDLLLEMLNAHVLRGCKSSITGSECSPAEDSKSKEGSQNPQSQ

Take `CCCC[C@@]12CCC(=O)C(C(F)(F)F)=C1c1ccc3[nH]nnc3c1C2`: the IC50 is 896 nM in series [1] and 3.2 nM in series [2]. For the same compound, the figures for the EC50 in series [3] and in series [4] were 169 nM and 2.3 nM, respectively.
The like results for `CCCC12CCC(=O)C(C)=C1c1ccc3nn[nH]c3c1C2` (stereo not given) were, in that order, 6170 nM, 81 nM, 449 nM and 17 nM.
The like results for `CCC1=C2c3ccc4[nH]nnc4c3CC2(CC)CCC1=O` (stereo not given) were, in that order, 1320 nM, 18 nM, 460 nM and 7.3 nM.
Compound `CCCC[C@@]12CCC(=O)C(CC)=C1c1ccc3nn[nH]c3c1C2` showed a clearance in series [5] of 62 mL/min/kg. This compound had a half-life in series [6] of 0.4 h. Moreover, the bioavailability in series [7] was 28%. In series [8], the AUC came to 0.9 µM·h. Moreover, the values for the 50% inhibitory concentration (IC50) in series [1] and in series [2] were 220 nM and 5.1 nM, respectively. Also, the EC50 in series [3] stood at 30 nM; in series [4], 0.4 nM.
Regarding `CCCC12CCC(=O)C(Br)=C1c1ccc3nn[nH]c3c1C2` (stereo not given), the IC50 is 3300 nM in series [1] and 43 nM in series [2]. Besides, the EC50 in series [3] is 561 nM; in series [4], 18 nM.
For `CCCC1=C2c3ccc4[nH]nnc4c3CC2(CCC)CCC1=O` (stereo not given), the IC50 was found to be 344 nM in series [1] and 23 nM in series [2].
For `CCC12CCC(=O)C(c3ccc(O)cc3)=C1c1ccc3[nH]nnc3c1C2` (stereo not given), the figures for the IC50 in series [1] and in series [2] were 81 nM and 11 nM, respectively. For the same compound, the EC50 in series [3] turned out to be 901 nM; in series [4], 4.3 nM.
With `CCCCC12CCC(=O)C(Br)=C1c1ccc3nn[nH]c3c1C2` (racemic), the clearance in series [5] is 102 mL/min/kg. For the same compound, the half-life in series [6] was 1.5 h. Further, in series [7], the bioavailability came to 0%. The same compound displayed an AUC in series [8] of 0.5 µM·h. Besides, the results for the IC50 in series [1] and in series [2] were 141 nM and 1.8 nM, respectively. The EC50 in series [3] was 94 nM; in series [4], 4 nM.
Turning to `CCCCC12CCC(=O)C(CCC)=C1c1ccc3[nH]nnc3c1C2` (stereo not given), the IC50 is 1250 nM in series [1] and 58 nM in series [2]. The EC50 in series [3] amounted to 1180 nM; in series [4] it was 96 nM.
Regarding `CCCCC12CCC(=O)C(CC)=C1c1ccc3[nH]nnc3c1C2` (racemic), in series [5], the clearance turned out to be 31.6 mL/min/kg. For the same compound, in series [6], the half-life was 2.9 h. In series [7], the bioavailability worked out at 85%. The same compound registered an AUC in series [8] of 1.7 µM·h.
For `CCC1=C2c3ccc4[nH]nnc4c3C[C@@]2(CC)CCC1=O`, the IC50 in series [1] is over 10000 nM; in series [2], 1520 nM.
With `CC[C@@]12CCC(=O)C(C(F)(F)F)=C1c1ccc3nn[nH]c3c1C2`, the clearance in series [5] came out at 108 mL/min/kg. The same compound gave a half-life in series [6] of 0.4 h. In series [7], this compound registered a bioavailability of 59%. For the same compound, the AUC in series [8] is 0.6 µM·h. Further, the IC50 was 1680 nM in series [1] and 11 nM in series [2]. In addition, the EC50 is 241 nM in series [3] and 4.9 nM in series [4].
Regarding `CCCC[C@]12CCC(=O)C(CC)=C1c1ccc3[nH]nnc3c1C2`, the clearance in series [5] was determined as 18.3 mL/min/kg. The same compound had a half-life in series [6] of 1.2 h. The same compound returned a bioavailability in series [7] of 99%. The AUC in series [8] came out at 3 µM·h. For the same compound, the IC50 in series [1] was 4750 nM; in series [2] it was 242 nM. Also, the concentration for a half-maximal effect (EC50) came to 391 nM in series [3] and 28 nM in series [4].
On to `CCCCC1=C2c3ccc4[nH]nnc4c3CC2(CC)CCC1=O` (stereo not given), for which the concentration for half-maximal inhibition (IC50) in series [1] came out at 1130 nM; in series [2], 43 nM. The EC50 was 681 nM in series [3] and 60 nM in series [4].
The matching figures for `CCC12CCC(=O)C=C1c1ccc3nn[nH]c3c1C2` (stereo not given): over 10000 nM, 3040 nM, 1230 nM and 475 nM.
In series [5], `CCCC[C@@]12CCC(=O)C(Br)=C1c1ccc3[nH]nnc3c1C2` gave a clearance of 24.4 mL/min/kg. This compound had a half-life in series [6] of 2.9 h. The same compound registered a bioavailability in series [7] of 36%. The compound also came in with an AUC in series [8] of 1.9 µM·h. Besides, the figures for the IC50 in series [1] and in series [2] were 1910 nM and 5.7 nM, respectively. Also, the results for the EC50 in series [3] and in series [4] were 519 nM and 5.5 nM, respectively.
As to `CCCC[C@@]12CCC(=O)C(c3cccs3)=C1c1ccc3nn[nH]c3c1C2`, the results for the IC50 in series [1] and in series [2] were 34 nM and 2.3 nM, respectively. The figures for the EC50 in series [3] and in series [4] were 79 nM and 0.96 nM, respectively.
The like results for `CCC12CCC(=O)C(Br)=C1c1ccc3nn[nH]c3c1C2` (stereo not given) were, in that order, 5170 nM, 60 nM, 1270 nM and 46 nM.
The matching figures for `CCCC1=C2c3ccc4nn[nH]c4c3CC2(CC)CCC1=O` (stereo not given): 352 nM, 11 nM, 794 nM and 14 nM.
In the case of `CCCC12CCC(=O)C(CC)=C1c1ccc3[nH]nnc3c1C2` (stereo not given), the IC50 in series [1] was determined as 612 nM; in series [2], 18 nM. The EC50 amounted to 120 nM in series [3] and 7.7 nM in series [4].
Take `CCC12CCC(=O)C(C)=C1c1ccc3[nH]nnc3c1C2` (stereo not given): the IC50 in series [1] amounted to 1900 nM; in series [2], 24 nM. Further, the EC50 in series [3] came out at 671 nM; in series [4], 20 nM.
As for `CCCCC12CCC(=O)C(C)=C1c1ccc3[nH]nnc3c1C2` (stereo not given), the IC50 in series [1] came to 5980 nM; in series [2], 27 nM. This compound gave an EC50 in series [4] of 20 nM.
On to `CCCCC12CCC(=O)C(c3ccco3)=C1c1ccc3[nH]nnc3c1C2` (stereo not given), for which the IC50 in series [1] was 1120 nM; in series [2] it was 7.4 nM. Also, the EC50 in series [3] is 870 nM; in series [4] it was 6.5 nM.
In turn, `CCC1=C2c3ccc4[nH]nnc4c3C[C@]2(CC)CCC1=O` showed a clearance in series [5] of 64.8 mL/min/kg. The compound also gave a half-life in series [6] of 0.3 h. This compound yielded a bioavailability in series [7] of 70%. The AUC in series [8] stood at 1 µM·h. Besides, the IC50 in series [1] was determined as 647 nM; in series [2], 5.7 nM. Besides, the EC50 in series [3] amounted to 140 nM; in series [4], 5.8 nM.

Usually IC50 stands for the midpoint of a concentration-inhibition curve. Low readings indicate higher potency, high ones lower potency. By EC50 is commonly meant the concentration that produces a half-maximal response. Low readings indicate higher potency in that assay, high ones lower potency in that assay. One may read the half-life as how long it takes for the measured level to halve. A higher half-life goes with slow decline. One may read the bioavailability as the share of a dose that reaches the circulation, judged against a reference dose that is usually intravenous. Low readings indicate poor availability, high ones good availability. Usually AUC stands for concentration integrated over time. Higher therefore signals more exposure.
